Data: ChEMBL document CHEMBL1134610, “Flavonolignan and flavone inhibitors of a Staphylococcus aureus multidrug resistance pump: structure-activity relationships” (2001)
The source made the active and inactive calls. The rule behind the calls is not given here.

These compounds were tested on Staphylococcus aureus (assay: Minimum inhibitory concentration, that inhibits growth of Staphylococcus aureus in the presence of subinhibitory (30 ug/mL) Berberine).
Type: functional
With `CCCOc1ccc(-c2cc(=O)c3ccccc3o2)cc1` the MIC was 0.4 µg/mL. In the case of `COc1cc([C@H]2Oc3cc(-c4cc(=O)c5c(O)cc(O)cc5o4)cc(OC)c3O[C@@H]2CO)ccc1O`, the MIC is reported as 2 µg/mL. For `COc1cc([C@H]2Oc3ccc(-c4cc(=O)c5c(O)cc(O)cc5o4)cc3O[C@@H]2CO)ccc1O`, the MIC was 3.1 µg/mL. `COc1cc(OC)c2c(=O)cc(-c3ccccc3)oc2c1` [CHRYSIN DIMETHYL ETHER] was tested, and the MIC was 25 µg/mL. Work on `COc1cc([C@@H]2Oc3ccc4c(=O)cc(-c5ccc(O)cc5)oc4c3O[C@H]2CO)ccc1O` yielded an MIC of 0.6 µg/mL. Compound `COc1ccc(-c2cc(=O)c3ccccc3o2)cc1` [4'-METHOXYFLAVONE] has an MIC of 6.3 µg/mL. Work on `COc1cc([C@H]2Oc3cc(-c4cc(=O)c5ccc(O)cc5o4)ccc3O[C@@H]2CO)ccc1O` yielded an MIC of 0.8 µg/mL. Compound `COc1cc([C@H]2Oc3cc(-c4oc5cc(O)ccc5c(=O)c4O)ccc3O[C@@H]2CO)ccc1O` has an MIC of 163 µg/mL. `C=CCOc1ccc(-c2cc(=O)c3ccccc3o2)cc1` gave an MIC of 6.3 µg/mL. With `CC(C)Oc1ccc(-c2cc(=O)c3ccccc3o2)cc1` the MIC was 1.9 µg/mL. In the case of `COc1cc([C@H]2Oc3cc([C@@H]4CC(=O)c5c(OC(C)=O)cc(OC(C)=O)cc5O4)ccc3O[C@@H]2COC(C)=O)ccc1OC(C)=O`, the MIC is reported as 1.6 µg/mL. With `COc1ccc(-c2cc(=O)c3c(O)cc(O)cc3o2)cc1O` [DIOSMETIN] the MIC was 15 µg/mL. `COc1cc([C@H]2Oc3cc(-c4cc(=O)c5c(O)cc(O)cc5o4)ccc3O[C@@H]2CO)ccc1O` [HYDNOCARPIN] showed an MIC of 0.1 µg/mL. Work on `COc1ccc(-c2cc(=O)c3ccccc3o2)cc1OC` [3',4'-DIMETHOXYFLAVONE] yielded an MIC of 6.3 µg/mL. With `O=c1cc(-c2ccc(OCCO)cc2)oc2ccccc12` the MIC was 25 µg/mL. `COc1cc([C@H]2Oc3cc(-c4cc(=O)c5c(OC(C)=O)cc(OC(C)=O)cc5o4)ccc3O[C@@H]2COC(C)=O)ccc1OC(C)=O` gave an MIC of 0.1 µg/mL. Work on `COc1cc([C@H]2Oc3cc(-c4cc(=O)c5c(O)cc(O)cc5o4)ccc3O[C@@H]2CO)cc(OC)c1O` yielded an MIC of 8 µg/mL. `O=c1cc(-c2ccccc2)oc2cc(O)cc(O)c12` [CHRYSIN] showed an MIC of 25 µg/mL. For `COc1cc([C@H]2Oc3cc(-c4cc(=O)c5ccc(OC(C)=O)cc5o4)ccc3O[C@@H]2COC(C)=O)ccc1OC(C)=O`, the MIC was 1.6 µg/mL. In the case of `COc1cc([C@H]2Oc3cc(-c4cc(=O)c5ccccc5o4)ccc3O[C@@H]2CO)ccc1O`, the MIC is reported as 0.08 µg/mL. Work on `COc1cc([C@H]2Oc3cc([C@@H]4CC(=O)c5c(O)cc(O)cc5O4)cc(OC)c3O[C@@H]2CO)ccc1O` yielded an MIC of 1.9 µg/mL. With `COc1cc([C@H]2Oc3cc([C@@H]4CC(=O)c5c(O)cc(O)cc5O4)ccc3O[C@@H]2CO)ccc1O` the MIC was 3.1 µg/mL. With `COc1cc([C@H]2Oc3ccc(-c4cc(=O)c5c(O)cc(O)cc5o4)cc3O[C@@H]2CO)cc(OC)c1O` the MIC was 7.8 µg/mL. `COc1cc([C@@H]2Oc3ccc4c(=O)cc(-c5ccccc5)oc4c3O[C@H]2CO)ccc1O` showed an MIC of 1.9 µg/mL. `COc1cc([C@H]2Oc3cc([C@H]4Oc5cc(O)cc(O)c5C(=O)[C@@H]4O)ccc3O[C@@H]2CO)ccc1O` [SILYBIN A] was tested, and the MIC was 12.5 µg/mL. Work on `CCOc1ccc(-c2cc(=O)c3ccccc3o2)cc1` yielded an MIC of 1.6 µg/mL.

The compounds below were run on Staphylococcus aureus (assay: Minimum inhibitory concentration, that inhibits growth of Staphylococcus aureus in the presence of subinhibitory (30 ug/mL) Berberine; Inactive).
Type: functional, organism-based
`CC(=O)Oc1cc(OC(C)=O)c2c(=O)cc(-c3ccc(OC(C)=O)c(OC(C)=O)c3)oc2c1` was tested, and the IA was “inactive”. With `COc1cc(OC)c2c(=O)cc(-c3ccc(OC)c(OC)c3)oc2c1` the IA was “inactive”. For `O=c1cc(-c2ccc(O)c(O)c2)oc2cc(O)ccc12`, the IA was “inactive”. `CC(=O)Oc1ccc2c(=O)cc(-c3ccc(OC(C)=O)c(OC(C)=O)c3)oc2c1` was tested, and the IA was “inactive”. `O=c1cc(-c2ccc(O)c(O)c2)oc2cc(O)cc(O)c12` was tested, and the IA was “inactive”. With `O=c1cc(-c2ccc(O)cc2)oc2c(O)c(O)ccc12` the IA was “inactive”. In the case of `O=c1cc(-c2ccc(OCc3ccccc3)cc2)oc2ccccc12`, the IA is reported as “inactive”. With `O=c1c(O)c(-c2ccc(O)c(O)c2)oc2cc(O)cc(O)c12` the IA was “inactive”. `CCCCCCCCCOc1ccc(-c2cc(=O)c3ccccc3o2)cc1` was tested, and the IA was “inactive”. With `O=c1cc(-c2ccc3c(c2)O[C@H](c2ccc(O)cc2)[C@@H](CO)O3)oc2cc(O)cc(O)c12` the IA was “inactive”. `COc1cc([C@H]2Oc3cc(-c4oc5cc(O)cc(O)c5c(=O)c4O)ccc3O[C@@H]2CO)ccc1O` was tested, and the IA was “inactive”. `O=c1cc(-c2ccccc2)oc2c(O)c(O)ccc12` was tested, and the IA was “inactive”. With `O=c1cc(-c2ccc(O)cc2)oc2ccccc12` the IA was “inactive”.

What follows are compounds tested on Staphylococcus aureus (assay: Minimum inhibitory concentration, that inhibits growth of Staphylococcus aureus in the presence of subinhibitory (30 ug/mL) Berberine Inactive).
Type: functional, organism-based
For `COc1cc([C@H]2Oc3cc(-c4oc5cc(OC(C)=O)cc(OC(C)=O)c5c(=O)c4OC(C)=O)ccc3O[C@@H]2COC(C)=O)ccc1OC(C)=O`, the IA was “inactive”.
